These results are taken from patent US20230127839A1, “COMPOUNDS AND COMPOSITIONS FOR TREATING CONDITIONS ASSOCIATED WITH STING ACTIVITY” (IFM Due, Inc., priority 2019, published 2023).

The experiment addresses T1, hSTING (Homo sapiens, UniProt Q86WV6, G230A/H232R/R293Q/R71H).
T1 construct: host or cells: THP1-Dual KO-IFNAR2 cells
Nature of the experiment: STING reporter assay (luciferase) in THP1-Dual KO-IFNAR2 cells stimulated with 2'3'cGAMP. Particulars: 2'3'cGAMP 15 μM, 24 h, luciferase reporter activity. The format is cell-based. In outline: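 THP1-Dual KO-IFNAR2 cells (2×10E6 cells/mL) exposed to compounds at 0.0017-100 μM final, then stimulated with 2′3′cGAMP (15 μM final) delivered by Lipofectamine 2000 transfection. After 24 h at 37° C, secreted luciferase in supernatant read by QUANTI-Luc luminescence; EC50 calculated.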
In general terms: A reporter such as luciferase makes a cellular process visible.

Each structure is given as a SMILES string.

T1 sequence (Q86WV6 whole entry R71H/G230A/H232R/R293Q): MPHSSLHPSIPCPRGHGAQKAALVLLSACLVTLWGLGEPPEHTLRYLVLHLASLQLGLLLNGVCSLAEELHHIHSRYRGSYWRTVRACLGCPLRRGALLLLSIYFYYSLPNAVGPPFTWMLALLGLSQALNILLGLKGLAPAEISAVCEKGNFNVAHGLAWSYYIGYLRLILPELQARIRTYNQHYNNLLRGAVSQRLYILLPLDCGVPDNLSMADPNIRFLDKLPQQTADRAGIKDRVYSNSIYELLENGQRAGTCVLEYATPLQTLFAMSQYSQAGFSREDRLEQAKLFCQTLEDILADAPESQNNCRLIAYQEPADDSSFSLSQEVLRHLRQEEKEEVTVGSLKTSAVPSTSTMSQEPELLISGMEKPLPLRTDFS

In the case of `Cc1cc(NC(=O)Nc2c[nH]c3cc(F)c(F)cc23)cnc1N1CC2(CC(O)C2)C1` [Compound 161, 1-(5,6-difluoro-1H-indol-3-yl)-3-(6-(6-hydroxy-2-azaspiro[3.3]heptan-2-yl)-5-methylpyridin-3-yl)urea], the half-maximal effective concentration (EC50) lay in the range of 5000 to 100000 nM.

The compound `O=C(Nc1cnc(N2CCC3(CC2)CC3)c(F)c1)Nc1c[nH]c2ccc(Cl)cc12` [Compound 240, 1-(5-chloro-1H-indol-3-yl)-3-(5-fluoro-6-(6-azaspiro[2.5]octan-6-yl)pyridin-3-yl)urea] had an EC50 of 40 to 200 nM.

As for `O=C(Nc1cnc(N2CC(C(F)(F)F)C2)c(Cl)c1)Nc1c[nH]c2ccc(Cl)cc12` [Compound 233, 1-(5-chloro-1H-indol-3-yl)-3-(5-chloro-6-(3-(trifluoromethyl)azetidin-1-yl)pyridin-3-yl)urea], the concentration for a half-maximal effect (EC50) was 40 to 200 nM.

`O=C(Nc1cnc(N2CCC(F)(F)CC2)c(CCO)c1)Nc1c[nH]c2ccc(Cl)cc12` [Compound 127, 1-(5-chloro-1H-indol-3-yl)-3-(6-(4,4-difluoropiperidin-1-yl)-5-(2-hydroxyethyl)pyridin-3-yl)urea] displayed an EC50 of 200 to 1000 nM.

`O=C(Nc1cnc(C2CCC(F)(F)CC2)c(Cl)c1)Nc1c[nH]c2ccc(C(F)F)cc12` [Compound 159, 1-(5-chloro-6-(4,4-difluorocyclohexyl)pyridin-3-yl)-3-(5-(difluoromethyl)-1H-indol-3-yl)urea]: the EC50 fell in the range of 40 to 200 nM.

Take `O=C(Nc1cn(C2CCC(F)(F)CC2)cn1)Nc1c[nH]c2ccc(F)cc12` [Compound 210, 1-[1-(4,4-difluorocyclohexyl)imidazol-4-yl]-3-(5-fluoro-1H-indol-3-yl)urea]: the EC50 fell in the range of 1000 to 5000 nM.

The compound `N#Cc1cc(NC(=O)Nc2c[nH]c3cc(F)c(F)cc23)cnc1C1CC(F)(F)C1` [Compound 125, 1-(5-cyano-6-(3,3-difluorocyclobutyl)pyridin-3-yl)-3-(5,6-difluoro-1H-indol-3-yl)urea] registered a 50% effective concentration (EC50) of 200 to 1000 nM.

`O=C(Nc1cc(Cl)c(C2CCC(F)(F)CC2)cn1)Nc1c[nH]c2cc(F)c(F)cc12` [Compound 154, 1-(4-chloro-5-(4,4-difluorocyclohexyl)pyridin-2-yl)-3-(5,6-difluoro-1H-indol-3-yl)urea]: the EC50 fell in the range of 40 to 200 nM.

In the case of `N#Cc1ccc2[nH]cc(NC(=O)Nc3cnc(N4CCC(F)(F)CC4)c(Cl)c3)c2c1` [Compound 181, 1-(5-chloro-6-(4,4-difluoropiperidin-1-yl)pyridin-3-yl)-3-(5-cyano-1H-indol-3-yl)urea], the EC50 fell in the range of 40 to 200 nM.

Regarding `O=C(Nc1ccc(N2CCN(CC(F)(F)F)CC2)nc1)Nc1c[nH]c2ccccc12` [Compound 280, 1-(1H-indol-3-yl)-3-(6-(4-(2,2,2-trifluoroethyl)piperazin-1-yl)pyridin-3-yl)urea], the EC50 was in the range of 200 to 1000 nM.

`O=C(Nc1cncc(C2CCC(F)(F)CC2)c1)Nc1c[nH]c2ccc(Cl)cc12` [Compound 256, 1-(5-chloro-1H-indol-3-yl)-3-(5-(4,4-difluorocyclohexyl)pyridin-3-yl)urea]: the EC50 fell in the range of 200 to 1000 nM.

Consider `O=C(Nc1ccc(N2CC3(C2)CC(F)(F)C3)nc1)Nc1c[nH]c2ccc(Cl)cc12` [Compound 155, 1-(5-chloro-1H-indol-3-yl)-3-(6-(6,6-difluoro-2-azaspiro[3.3]heptan-2-yl)pyridin-3-yl)urea], for which the 50% effective concentration (EC50) was 40 to 200 nM.

The compound `O=C(Nc1cnc(N2CCC3(CCCCO3)CC2)c(Cl)c1)Nc1c[nH]c2cc(F)c(F)cc12` [Compound 176, 1-(5-chloro-6-(1-oxa-9-azaspiro[5.5]undecan-9-yl)pyridin-3-yl)-3-(5,6-difluoro-1H-indol-3-yl)urea] yielded a concentration for a half-maximal effect (EC50) of 200 to 1000 nM.

`O=C(Nc1cnc(N2CCN(CC(F)(F)F)CC2)c(F)c1)Nc1c[nH]c2ccccc12` [Compound 278, 1-(5-fluoro-6-(4-(2,2,2-trifluoroethyl)piperazin-1-yl)pyridin-3-yl)-3-(1H-indol-3-yl)urea] yielded an EC50 of 200 to 1000 nM.

In the case of `O=C(Nc1cnc(N2CCC3(CC2)CC3(F)F)c(Cl)c1)Nc1c[nH]c2cc(F)c(F)cc12` [Compound 236, 1-(5-chloro-6-(1,1-difluoro-6-azaspiro[2.5]octan-6-yl)pyridin-3-yl)-3-(5,6-difluoro-1H-indol-3-yl)urea], the concentration giving a half-maximal response (EC50) was in the range of 40 to 200 nM.

As for `C[C@H]1CN(c2ncc(NC(=O)Nc3c[nH]c4ccc(Cl)cc34)cc2Cl)CCN1` [Compound 296, (S)-1-(5-chloro-1H-indol-3-yl)-3-(5-chloro-6-(3-methylpiperazin-1-yl)pyridin-3-yl)urea], the 50% effective concentration (EC50) fell in the range of 1000 to 5000 nM.

As for `C[C@@H]1CN(c2ncc(NC(=O)Nc3c[nH]c4ccc(Cl)cc34)cc2Cl)CCN1C(=O)OC(C)(C)C` [Compound 284, tert-butyl(R)-4-(3-chloro-5-(3-(5-chloro-1H-indol-3-yl)ureido)pyridin-2-yl)-2-methylpiperazine-1-carboxylate], the concentration for a half-maximal effect (EC50) lay in the range of 40 to 200 nM.

On to `O=C(Nc1ccnc(C2CCCN(CC(F)(F)F)C2)c1)Nc1c[nH]c2cc(F)c(F)cc12` (centres unmarked) [Compound 219, 1-(5,6-difluoro-1H-indol-3-yl)-3-(2-(1-(2,2,2-trifluoroethyl)piperidin-3-yl)pyridin-4-yl)urea], for which the half-maximal effective concentration (EC50) fell in the range of 1000 to 5000 nM.

For `O=C(Nc1ccc(N2CCC(F)(F)CC2)nc1)Nc1c[nH]c2ccc(F)cc12` [Compound 273, 1-(6-(4,4-difluoropiperidin-1-yl)pyridin-3-yl)-3-(5-fluoro-1H-indol-3-yl)urea], the EC50 lay within 200 to 1000 nM.

On to `O=C(Nc1cnc(N2CCN(CC(F)(F)F)CC2)c(Cl)c1)Nc1c[nH]c2ccc(Cl)cc12` [Compound 126, 1-(5-chloro-1H-indol-3-yl)-3-(5-chloro-6-(4-(2,2,2-trifluoroethyl)piperazin-1-yl)pyridin-3-yl)urea], for which the EC50 fell in the range of 40 to 200 nM.

Turning to `CC1(C)OCC(c2ncc(NC(=O)Nc3c[nH]c4ccc(Cl)cc34)cc2Br)CO1` [Compound 294, 1-(5-bromo-6-(2,2-dimethyl-1,3-dioxan-5-yl)pyridin-3-yl)-3-(5-chloro-1H-indol-3-yl)urea], the concentration giving a half-maximal response (EC50) lay in the range of 40 to 200 nM.

For the compound `O=C(Nc1cnc(N2CCC(F)(F)CC2)c(Cl)c1)Nc1c[nH]c2ccc(F)cc12` [Compound 193, 1-(5-chloro-6-(4,4-difluoropiperidin-1-yl)pyridin-3-yl)-3-(5-fluoro-1H-indol-3-yl)urea], the EC50 lay within 40 to 200 nM.

`Cc1cc(NC(=O)Nc2c[nH]c3cc(F)c(F)cc23)cnc1N1CCC(F)(F)CC1` [Compound 200, 1-(5,6-difluoro-1H-indol-3-yl)-3-(6-(4,4-difluoropiperidin-1-yl)-5-methylpyridin-3-yl)urea] registered an EC50 of 40 to 200 nM.

Turning to `O=C(Nc1cnc(N2CCN(CC(F)(F)F)CC2)c(Cl)c1)Nc1c[nH]c2ccc(F)cc12` [Compound 266, 1-(5-chloro-6-(4-(2,2,2-trifluoroethyl)piperazin-1-yl)pyridin-3-yl)-3-(5-fluoro-1H-indol-3-yl)urea], the concentration for a half-maximal effect (EC50) was 40 to 200 nM.

`O=C(Nc1cnn(C2CC(F)(F)C2)c1)Nc1c[nH]c2cc(F)c(F)cc12` [Compound 216, 1-(5,6-difluoro-1H-indol-3-yl)-3-(1-(3,3-difluorocyclobutyl)-1H-pyrazol-4-yl)urea] showed a concentration for a half-maximal effect (EC50) of 1000 to 5000 nM.

As for `O=C(Nc1ccc(N2CCC(F)(F)CC2)nn1)Nc1c[nH]c2ccccc12` [Compound 204, 1-(6-(4,4-difluoropiperidin-1-yl)pyridazin-3-yl)-3-(1H-indol-3-yl)urea], the EC50 was in the range of 1000 to 5000 nM.

`O=C(Nc1cnc(N2CCC(F)(F)CC2)c(Cl)n1)Nc1c[nH]c2ccc(Cl)cc12` [Compound 174, 1-(5-chloro-1H-indol-3-yl)-3-(6-chloro-5-(4,4-difluoropiperidin-1-yl)pyrazin-2-yl)urea] came in with a concentration for a half-maximal effect (EC50) of 40 to 200 nM.

Compound `O=C(Nc1cnc(C2CCN(CC(F)(F)F)CC2)c(F)c1)Nc1c[nH]c2ccccc12` [Compound 271, 1-(5-fluoro-6-(1-(2,2,2-trifluoroethyl)piperidin-4-yl)pyridin-3-yl)-3-(1H-indol-3-yl)urea] showed an EC50 of 200 to 1000 nM.

The compound `O=C(Nc1cnc(N2CCOCC2)c(Cl)c1)Nc1c[nH]c2cc(F)c(F)cc12` [Compound 165, 1-(5-chloro-6-morpholinopyridin-3-yl)-3-(5,6-difluoro-1H-indol-3-yl)urea] returned a concentration for a half-maximal effect (EC50) of 200 to 1000 nM.

As to `O=C(Nc1cnc(C2CCN(CCC(F)(F)F)C2)c(Cl)c1)Nc1c[nH]c2ccc(Cl)cc12` (centres unmarked) [Compound 242, 1-(5-chloro-1H-indol-3-yl)-3-(5-chloro-6-(1-(3,3,3-trifluoropropyl)pyrrolidin-3-yl)pyridin-3-yl)urea], the 50% effective concentration (EC50) lay in the range of 40 to 200 nM.

`O=C(Nc1cc(Cl)nc(C2CCC(F)(F)CC2)c1)Nc1c[nH]c2ccc(Cl)cc12` [Compound 221, 1-(5-chloro-1H-indol-3-yl)-3-(2-chloro-6-(4,4-difluorocyclohexyl)pyridin-4-yl)urea] displayed a half-maximal effective concentration (EC50) of 40 to 200 nM.

With `O=C(Nc1ccc(N2CCN(CC(F)(F)F)CC2)nc1)Nc1c[nH]c2ccc(F)cc12` [Compound 253, 1-(5-fluoro-1H-indol-3-yl)-3-(6-(4-(2,2,2-trifluoroethyl)piperazin-1-yl)pyridin-3-yl)urea], the EC50 was 200 to 1000 nM.

Take `O=C(Nc1cnc(N2CC3(CN(CC(F)(F)F)C3)C2)c(Cl)c1)Nc1c[nH]c2ccc(Cl)cc12` [Compound 262, 1-(5-chloro-1H-indol-3-yl)-3-(5-chloro-6-(6-(2,2,2-trifluoroethyl)-2,6-diazaspiro[3.3]heptan-2-yl)pyridin-3-yl)urea]: the concentration giving a half-maximal response (EC50) fell in the range of 40 to 200 nM.

On to `O=C(Nc1cnc(N2CCC(F)(F)CC2)nc1)Nc1c[nH]c2ccccc12` [Compound 178, 1-(2-(4,4-difluoropiperidin-1-yl)pyrimidin-5-yl)-3-(1H-indol-3-yl)urea], for which the concentration for a half-maximal effect (EC50) was 1000 to 5000 nM.

For the compound `CC1(C)CN(c2ncc(NC(=O)Nc3c[nH]c4cc(F)c(F)cc34)cc2Cl)CCO1` [Compound 153, 1-(5-chloro-6-(2,2-dimethylmorpholino)pyridin-3-yl)-3-(5,6-difluoro-1H-indol-3-yl)urea], the EC50 is 40 to 200 nM.

For orientation: EC50 means the concentration needed to bring the measured effect to its halfway point. Lower therefore signals higher potency in that assay.
